pEC50: −log10 of the molar value. Read-outs that look alike come from different tables or passages of the source. Starred links: 1 amine or outer side, 2 acyl side, 3 side chain; linkers in the order of their positions; H or OH if unused. Non-standard residues stand in square brackets, D forms with d. Residues, ends and D or L forms follow the SMILES beside them. Groups on a side chain read outwards from the residue. *: point of attachment. C18 diacid = O=C(O)CCCCCCCCCCCCCCCCC(=O)*; γGlu = O=C(O)[C@H](CCC(=O)[*:2])N[*:1]; εLys = N[C@@H](CCCCN[*:1])C(=O)[*:2]; Aib = CC(C)(N)C(=O)O
Assays:
[1] = Pharmacokinetic study in dogs after oral dosing of tablets with SNAC; type: in vivo, Beagle dogs; conditions: dog, in vivo, po
In short: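 The tablets held 3-4 mg compound plus 100-300 mg SNAC and were given to fasted male beagles (6-8 per group); non-compartmental PK per animal.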

human GIP receptor = target: T1, human GIP receptor (Homo sapiens, UniProt P48546); assay: In vitro functional potency, CRE luciferase reporter, whole BHK cells (hGIPR); type: cell-based; conditions: BHK CRE luc2P hGIPR cells
T1 construct: expressed in transfected cells; host or cells: BHK (parent line BHKTS13), clone BHK CRE luc2P hGIPR
T1 sequence (P48546 22-466): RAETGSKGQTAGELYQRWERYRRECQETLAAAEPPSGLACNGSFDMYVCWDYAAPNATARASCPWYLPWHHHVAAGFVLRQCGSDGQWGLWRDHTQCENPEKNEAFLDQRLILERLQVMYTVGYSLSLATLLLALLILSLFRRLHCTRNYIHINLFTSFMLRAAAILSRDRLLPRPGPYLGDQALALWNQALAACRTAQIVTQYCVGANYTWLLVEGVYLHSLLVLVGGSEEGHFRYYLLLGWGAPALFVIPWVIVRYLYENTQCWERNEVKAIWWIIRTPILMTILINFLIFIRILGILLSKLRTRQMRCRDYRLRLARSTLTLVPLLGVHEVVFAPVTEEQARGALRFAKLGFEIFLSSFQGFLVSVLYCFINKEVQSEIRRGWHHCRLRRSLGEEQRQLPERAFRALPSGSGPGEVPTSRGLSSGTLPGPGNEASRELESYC
In short: (§1)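 Potencies are replicate means (n≥2) from non-linear log(agonist) vs response fits of CRE-driven luminescence. Cells were overnight-plated BHK CRE luc2P lines transfected with human GIPR or GLP-1R, 5000/well.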

human GLP-1 receptor = human GLP-1 receptor (Homo sapiens, UniProt P43220); assay: In vitro functional potency, CRE luciferase reporter, whole BHK cells (hGLP-1R); type: cell-based; set-up: expressed in transfected cells; host or cells: BHK (parent line BHKTS13), clone BHK CRE luc2P hGLP-1R; conditions: BHK CRE luc2P hGLP-1R cells
In short: as §1

human GLP-1 receptor, sequence (P43220 24-463): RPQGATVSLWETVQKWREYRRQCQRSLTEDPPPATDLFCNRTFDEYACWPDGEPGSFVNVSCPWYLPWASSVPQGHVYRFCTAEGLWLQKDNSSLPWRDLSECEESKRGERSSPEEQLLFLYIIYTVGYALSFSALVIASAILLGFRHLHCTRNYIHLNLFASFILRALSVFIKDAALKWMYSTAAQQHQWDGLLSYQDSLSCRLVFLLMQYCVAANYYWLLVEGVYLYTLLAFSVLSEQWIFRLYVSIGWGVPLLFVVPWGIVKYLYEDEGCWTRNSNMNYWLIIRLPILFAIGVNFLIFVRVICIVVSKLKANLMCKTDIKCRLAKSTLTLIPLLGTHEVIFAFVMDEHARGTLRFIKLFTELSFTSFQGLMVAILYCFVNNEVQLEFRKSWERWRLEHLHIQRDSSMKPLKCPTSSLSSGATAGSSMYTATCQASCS

Structure (SMILES): CC[C@H](C)[C@H](NC(=O)[C@H](Cc1ccccc1)NC(=O)[C@H](CCC(=O)O)NC(=O)[C@H](CCC(=O)O)NC(=O)[C@H](C)NC(=O)[C@H](C)NC(=O)[C@H](CCC(N)=O)NC(=O)[C@H](CCCCNC(=O)[C@@H](N)CCCCNC(=O)[C@@H](N)CCCCNC(=O)CC[C@H](NC(=O)CCCCCCCCCCCCCCCCC(=O)O)C(=O)O)NC(=O)[C@H](CCC(=O)O)NC(=O)[C@H](CC(C)C)NC(=O)[C@H](CC(C)C)NC(=O)[C@@H](NC(=O)[C@H](CO)NC(=O)[C@H](Cc1ccc(O)cc1)NC(=O)[C@H](CC(=O)O)NC(=O)[C@H](CO)NC(=O)[C@@H](NC(=O)[C@H](Cc1ccccc1)NC(=O)[C@@H](NC(=O)CNC(=O)[C@H](CCC(=O)O)NC(=O)C(C)(C)NC(=O)[C@@H](N)Cc1ccc(O)cc1)[C@@H](C)O)[C@@H](C)O)[C@@H](C)CC)C(=O)N[C@@H](CC(N)=O)C(=O)N[C@@H](Cc1c[nH]c2ccccc12)C(=O)N[C@@H](CC(C)C)C(=O)N[C@@H](CC(C)C)C(=O)N[C@@H](C)C(=O)NCC(=O)NCC(=O)N1CCC[C@H]1C(=O)N[C@@H](CO)C(=O)N[C@@H](CO)C(=O)NCC(=O)N[C@@H](C)C(=O)N1CCC[C@H]1C(=O)N1CCC[C@H]1C(=O)N1CCC[C@H]1C(=O)N[C@@H](CO)C(=O)O [Compound 25] (H-Y[Aib]EGTFTSDYSILLEK([εLys-εLys-γGlu-C18 diacid])QAAEEFINWLLAGGPSSGAPPPS-OH)
- AUC/Dose [1]: 15.2 kg·h/L
- Cmax/Dose [1]: 0.30 kg/L
- Tmax ([1]; male, Beagle): 1.8 h
- half-life ([1]; male, Beagle): 43 h
- pEC50 (human GIP receptor; 0% HSA, read-out: hGIPR, CRE Luc 0% HSA EC50): 11.14
- pEC50 (human GIP receptor; hGIPR, CRE Luc 1% HSA EC50, 1% HSA): 9.58
- pEC50 (human GLP-1 receptor; 0% HSA, read-out: hGLP-1R, CRE Luc 0% HSA EC50): 10.81
- pEC50 (human GLP-1 receptor; hGLP-1R, CRE Luc 1% HSA EC50, 1% HSA): 9.13

Source: patent US20220177538A1, “CO-AGONISTS AT GLP-1 AND GIP RECEPTORS SUITABLE FOR ORAL DELIVERY” (Novo Nordisk A/S, priority 2020, published 2022)
